The subject of data set [1] is pentobarbital-induced sleeping behaviors. Also on record: method as in PMID 28066138. As to conditions: cited from earlier work.
The subject of a further data set is sleep architectures. On the set-up: method as in PMID 28066138. As to conditions: DA 50 mg/kg, po; cited from earlier work.
For data set [2], the system named is rat hypothalamic primary neuronal cells. Also on record: method as in PMID 28066138. As to conditions: cited from earlier work.
The subject of the next data set is DSS-induced colitis. On the set-up: method as in PMID 30917627. The conditions noted are these: ip every other day 0.4 and 4 mg/kg; cited from earlier work.
A further data set relates to CYP2C19 and 3A4. As to conditions: cited from earlier work.
The subject of the next data set is carboxyesterase-2 (CES2). The conditions noted are these: cited from earlier work.
In a further data set the target is T1, BIKE (BMP2K) (Homo sapiens, UniProt Q9NSY1).
T1 construct: purchased Eurofins DiscoverX (KINOMEscan)
The data set is described as follows: KINOMEscan competition binding. The conditions noted are these: initial screening, DOH 50 µM; read-out: Substrate bound % Control. The method, then: (§1) Two distinct platforms were used for initial screening with 50 µM DOH vs. DMSO vehicle. The first was the Eurofins DiscoverX KINOMEscan® (Freemont, CA USA) profiling platform, which employed a proprietary active site-directed competition binding assay to quantitatively measure interactions between a test compound (i.e., DOH) and 468 human protein kinases and disease relevant mutant variants either directly (sterically) or indirectly (allosterically) to prevent a kinase binding to its immobilized substrate (ligand). The top 8 hits were subjected to secondary screening verification by DOH concentration-titration for dissociation constant (Kd). For ROCK1 and ROCK2, DA was chosen for Kd titration as well, because it is ~ 10 × higher than D in peripheral circulation due to its resistance to hydrolysis by carboxyesterase-2 (Fig. 1C).

The next data set addresses T2, ERK4 (MAPK4) (Homo sapiens, UniProt P31152).
T2 construct: purchased Eurofins DiscoverX (KINOMEscan)
Kind of data set: KINOMEscan competition binding. The method, then: as §1

For another data set, the target named is T3, GRK4 (Homo sapiens, UniProt P32298).
T3 construct: purchased Eurofins DiscoverX (KINOMEscan)
Kind of data set: KINOMEscan competition binding. As to conditions: initial screening, DOH 50 µM; read-out: Substrate bound % Control. As for the experimental part: as §1

For data set [3], the target named is T4, JAK2(JH1domain-catalytic) (Homo sapiens, UniProt O60674).
T4 construct: JAK2(JH1domain-catalytic); purchased Eurofins DiscoverX (KINOMEscan)
Kind of data set: KINOMEscan competition binding. The conditions noted are these: initial screening, DOH 50 µM; read-out: Substrate bound % Control. The method, then:
as §1

The next data set addresses T5, LKB1 (STK11) (Homo sapiens, UniProt Q15831).
T5 construct: purchased Eurofins DiscoverX (KINOMEscan)
The data set is described as follows: KINOMEscan competition binding. The method, then:
as §1

A further data set addresses T6, PIK3C2G (Homo sapiens, UniProt O75747).
T6 construct: purchased Eurofins DiscoverX (KINOMEscan)
The data set is described as follows: KINOMEscan competition binding. The conditions noted are these: initial screening, DOH 50 µM; read-out: Substrate bound % Control. As for the experimental part: as §1

The target in a further data set is T7, PIK3CG (Homo sapiens, UniProt P48736).
T7 construct: purchased Eurofins DiscoverX (KINOMEscan)
The data set is described as follows: KINOMEscan competition binding. As to conditions: initial screening, DOH 50 µM; read-out: Substrate bound % Control. The method, then:
as §1

Another data set deals with T8, PIP5K1A (Homo sapiens, UniProt Q99755).
T8 construct: purchased Eurofins DiscoverX (KINOMEscan)
Kind of data set: KINOMEscan competition binding. As to conditions: initial screening, DOH 50 µM; read-out: Substrate bound % Control. The method, then:
as §1

A further data set deals with T9, SRPK3 (Homo sapiens, UniProt Q9UPE1).
T9 construct: purchased Eurofins DiscoverX (KINOMEscan)
The data set is described as follows: KINOMEscan competition binding. As to conditions: initial screening, DOH 50 µM; read-out: Substrate bound % Control. As for the experimental part: as §1

The target in the next data set is T10, YSK4 (MAP3K19) (Homo sapiens, UniProt Q56UN5).
T10 construct: purchased Eurofins DiscoverX (KINOMEscan)
The data set is described as follows: KINOMEscan competition binding. The conditions noted are these: initial screening, DOH 50 µM; read-out: Substrate bound % Control. The method, then:
as §1

Details of data set [4]: method as in PMID 27080944, PMID 23364885, PMID 29121805. As to conditions: oral gavage dosing of AGN or D/DA; cited from earlier work.
The test system of another data set is acute pain models. Also on record: method as in PMID 12759141. As to conditions: cited from earlier work.
For data set [5], the system named is acetic acid-induced writhing. Also on record: method as in PMID 19557373. The conditions noted are these: cited from earlier work.
Data set [6] concerns serotonin (5-hydroxytryptamine) level. Also on record: method as in PMID 19801740. The conditions noted are these: DOH gavage, highest at 10 mg DOH/kg in frontal cortex and striatum; cited from earlier work.
The subject of data set [7] is BOCCA and MCAO ischemic damage. Also on record: method as in PMID 19801740. As to conditions: 20 mg/kg, pre or post-treatment; cited from earlier work.
The next data set has as its system experimental sepsis. Also on record: method as in PMID 20157398. As to conditions: ip 1 ~ 100 mg/kg before LPS/GalN or high-dose LPS (20 mg/kg); cited from earlier work.
For data set [8] the following is noted: cited from earlier work.
A further data set deals with CLP microbial exposure. The conditions noted are these: ip twice at 2 h and 4 h after CLP; cited from earlier work.
A further data set deals with CDK9 (Homo sapiens, UniProt P50750). The data set is described as follows: Reaction Biology kinase activity inhibition. It counts as biochemical. On the set-up: purchased Reaction Biology (Malvern, PA). The conditions noted are these: activity screening, DOH at 50 μM. The source says: The second screening was the Reaction Biology® (Malvern, PA) kinase activity inhibition tests, which screened for more than 600 protein kinases and lipid kinases, using miniaturized radioisotope-based assay platform with γ-^33P-ATP, followed by confirmation with IC50 kinase profiling service with 5 concentrations of test compound (i.e., DOH and DA) with curve fitting.

Where [9] appears, read: read-out: Substrate bound % Control.
The mark [10] stands for this setting: validation Kd titration, 0.003 to 50 µM.

The structures appear in SMILES notation. Read-outs that look alike come from different tables or passages of the source.

T5 sequence (Q15831 whole entry): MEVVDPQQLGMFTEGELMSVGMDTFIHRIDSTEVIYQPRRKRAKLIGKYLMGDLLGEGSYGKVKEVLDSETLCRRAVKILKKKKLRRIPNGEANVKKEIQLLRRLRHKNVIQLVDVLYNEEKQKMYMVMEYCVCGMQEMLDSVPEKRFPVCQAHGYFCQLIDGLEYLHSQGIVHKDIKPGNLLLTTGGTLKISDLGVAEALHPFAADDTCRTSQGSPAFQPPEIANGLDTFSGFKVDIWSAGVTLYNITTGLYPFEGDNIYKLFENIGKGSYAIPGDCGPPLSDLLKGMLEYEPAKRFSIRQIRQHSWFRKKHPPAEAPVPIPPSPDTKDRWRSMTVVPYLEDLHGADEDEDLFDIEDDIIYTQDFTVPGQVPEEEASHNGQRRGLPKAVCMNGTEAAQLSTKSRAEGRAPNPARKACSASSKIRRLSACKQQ
T2 sequence (P31152 whole entry): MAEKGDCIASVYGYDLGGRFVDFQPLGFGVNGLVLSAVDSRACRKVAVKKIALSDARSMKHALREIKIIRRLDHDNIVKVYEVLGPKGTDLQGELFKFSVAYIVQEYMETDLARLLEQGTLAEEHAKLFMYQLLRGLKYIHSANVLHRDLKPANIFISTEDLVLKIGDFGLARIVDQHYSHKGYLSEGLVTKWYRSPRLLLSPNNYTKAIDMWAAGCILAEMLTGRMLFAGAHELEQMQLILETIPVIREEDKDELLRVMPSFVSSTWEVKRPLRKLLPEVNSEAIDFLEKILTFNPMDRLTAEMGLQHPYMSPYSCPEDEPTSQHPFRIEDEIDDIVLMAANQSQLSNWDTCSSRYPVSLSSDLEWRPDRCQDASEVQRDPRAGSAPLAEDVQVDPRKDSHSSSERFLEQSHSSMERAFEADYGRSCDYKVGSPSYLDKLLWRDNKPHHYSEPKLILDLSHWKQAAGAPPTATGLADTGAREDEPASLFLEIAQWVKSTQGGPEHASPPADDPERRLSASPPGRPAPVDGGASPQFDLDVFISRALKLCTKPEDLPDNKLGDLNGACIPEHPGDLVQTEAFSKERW
T6 sequence (O75747 whole entry): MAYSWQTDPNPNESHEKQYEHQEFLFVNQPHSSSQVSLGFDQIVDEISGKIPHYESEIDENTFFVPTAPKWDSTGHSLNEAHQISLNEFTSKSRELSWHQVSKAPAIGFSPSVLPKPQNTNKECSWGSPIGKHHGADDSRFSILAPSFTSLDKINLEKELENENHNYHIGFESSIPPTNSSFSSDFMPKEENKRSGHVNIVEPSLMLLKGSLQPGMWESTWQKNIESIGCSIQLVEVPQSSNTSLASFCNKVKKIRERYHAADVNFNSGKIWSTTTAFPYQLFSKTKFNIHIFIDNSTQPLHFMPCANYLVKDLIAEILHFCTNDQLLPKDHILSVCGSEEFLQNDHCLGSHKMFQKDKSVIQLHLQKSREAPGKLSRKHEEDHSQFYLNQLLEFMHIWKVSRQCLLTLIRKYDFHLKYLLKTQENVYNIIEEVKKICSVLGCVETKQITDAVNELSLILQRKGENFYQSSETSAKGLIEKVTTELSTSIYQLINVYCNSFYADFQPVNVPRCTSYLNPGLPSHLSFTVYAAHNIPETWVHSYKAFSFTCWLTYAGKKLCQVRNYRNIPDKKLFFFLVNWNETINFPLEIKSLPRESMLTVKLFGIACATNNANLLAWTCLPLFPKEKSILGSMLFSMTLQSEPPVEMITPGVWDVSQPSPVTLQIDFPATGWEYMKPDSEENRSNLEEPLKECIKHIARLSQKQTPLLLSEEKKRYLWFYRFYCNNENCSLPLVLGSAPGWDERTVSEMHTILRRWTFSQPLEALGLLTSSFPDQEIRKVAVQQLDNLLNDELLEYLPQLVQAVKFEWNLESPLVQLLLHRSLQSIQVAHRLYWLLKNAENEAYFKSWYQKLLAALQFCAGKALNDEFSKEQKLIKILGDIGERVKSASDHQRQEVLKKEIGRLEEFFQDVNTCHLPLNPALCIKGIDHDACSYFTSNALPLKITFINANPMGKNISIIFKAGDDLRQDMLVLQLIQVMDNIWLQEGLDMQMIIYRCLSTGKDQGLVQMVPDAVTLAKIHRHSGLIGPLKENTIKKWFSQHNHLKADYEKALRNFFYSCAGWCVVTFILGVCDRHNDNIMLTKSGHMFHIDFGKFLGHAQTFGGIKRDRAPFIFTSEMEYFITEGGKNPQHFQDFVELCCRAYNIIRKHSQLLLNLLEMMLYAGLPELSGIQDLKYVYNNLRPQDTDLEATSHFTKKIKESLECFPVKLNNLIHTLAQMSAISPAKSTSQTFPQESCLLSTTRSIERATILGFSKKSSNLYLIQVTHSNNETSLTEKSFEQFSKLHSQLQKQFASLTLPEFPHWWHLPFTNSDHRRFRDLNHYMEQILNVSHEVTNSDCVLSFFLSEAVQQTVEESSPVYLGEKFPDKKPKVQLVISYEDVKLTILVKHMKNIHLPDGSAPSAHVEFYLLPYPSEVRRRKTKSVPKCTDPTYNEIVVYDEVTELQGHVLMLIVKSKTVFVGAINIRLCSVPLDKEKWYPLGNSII
T1 sequence (Q9NSY1 whole entry): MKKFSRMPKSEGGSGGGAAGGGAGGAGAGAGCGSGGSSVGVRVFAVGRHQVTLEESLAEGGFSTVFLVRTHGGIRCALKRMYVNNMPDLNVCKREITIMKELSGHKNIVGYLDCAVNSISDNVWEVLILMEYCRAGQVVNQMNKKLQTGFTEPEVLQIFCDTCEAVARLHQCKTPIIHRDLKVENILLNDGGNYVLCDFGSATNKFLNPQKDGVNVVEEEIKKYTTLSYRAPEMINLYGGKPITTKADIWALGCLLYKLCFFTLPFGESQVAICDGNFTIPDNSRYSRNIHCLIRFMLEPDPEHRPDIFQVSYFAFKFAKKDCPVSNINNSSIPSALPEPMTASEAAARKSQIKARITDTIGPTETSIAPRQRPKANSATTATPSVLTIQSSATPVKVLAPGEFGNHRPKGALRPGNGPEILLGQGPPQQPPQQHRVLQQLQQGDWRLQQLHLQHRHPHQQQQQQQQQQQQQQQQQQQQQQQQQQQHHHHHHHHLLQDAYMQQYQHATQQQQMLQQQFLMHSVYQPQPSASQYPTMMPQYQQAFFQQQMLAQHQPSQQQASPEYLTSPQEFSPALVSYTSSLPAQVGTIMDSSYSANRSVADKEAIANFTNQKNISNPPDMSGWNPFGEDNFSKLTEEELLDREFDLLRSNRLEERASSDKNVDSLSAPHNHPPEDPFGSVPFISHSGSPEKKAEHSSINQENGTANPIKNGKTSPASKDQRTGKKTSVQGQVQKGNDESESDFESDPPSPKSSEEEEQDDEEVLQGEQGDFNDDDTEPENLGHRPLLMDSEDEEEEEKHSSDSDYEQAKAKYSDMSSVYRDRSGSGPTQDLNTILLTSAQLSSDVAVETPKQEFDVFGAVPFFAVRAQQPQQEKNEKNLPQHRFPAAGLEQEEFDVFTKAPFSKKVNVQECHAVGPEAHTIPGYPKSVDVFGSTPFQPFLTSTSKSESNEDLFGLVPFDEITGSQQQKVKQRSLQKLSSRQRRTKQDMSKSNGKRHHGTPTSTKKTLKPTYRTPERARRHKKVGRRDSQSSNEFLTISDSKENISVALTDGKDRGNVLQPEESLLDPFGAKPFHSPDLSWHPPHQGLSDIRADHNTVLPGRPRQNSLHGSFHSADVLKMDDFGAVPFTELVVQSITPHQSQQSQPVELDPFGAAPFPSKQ
T7 sequence (P48736 whole entry): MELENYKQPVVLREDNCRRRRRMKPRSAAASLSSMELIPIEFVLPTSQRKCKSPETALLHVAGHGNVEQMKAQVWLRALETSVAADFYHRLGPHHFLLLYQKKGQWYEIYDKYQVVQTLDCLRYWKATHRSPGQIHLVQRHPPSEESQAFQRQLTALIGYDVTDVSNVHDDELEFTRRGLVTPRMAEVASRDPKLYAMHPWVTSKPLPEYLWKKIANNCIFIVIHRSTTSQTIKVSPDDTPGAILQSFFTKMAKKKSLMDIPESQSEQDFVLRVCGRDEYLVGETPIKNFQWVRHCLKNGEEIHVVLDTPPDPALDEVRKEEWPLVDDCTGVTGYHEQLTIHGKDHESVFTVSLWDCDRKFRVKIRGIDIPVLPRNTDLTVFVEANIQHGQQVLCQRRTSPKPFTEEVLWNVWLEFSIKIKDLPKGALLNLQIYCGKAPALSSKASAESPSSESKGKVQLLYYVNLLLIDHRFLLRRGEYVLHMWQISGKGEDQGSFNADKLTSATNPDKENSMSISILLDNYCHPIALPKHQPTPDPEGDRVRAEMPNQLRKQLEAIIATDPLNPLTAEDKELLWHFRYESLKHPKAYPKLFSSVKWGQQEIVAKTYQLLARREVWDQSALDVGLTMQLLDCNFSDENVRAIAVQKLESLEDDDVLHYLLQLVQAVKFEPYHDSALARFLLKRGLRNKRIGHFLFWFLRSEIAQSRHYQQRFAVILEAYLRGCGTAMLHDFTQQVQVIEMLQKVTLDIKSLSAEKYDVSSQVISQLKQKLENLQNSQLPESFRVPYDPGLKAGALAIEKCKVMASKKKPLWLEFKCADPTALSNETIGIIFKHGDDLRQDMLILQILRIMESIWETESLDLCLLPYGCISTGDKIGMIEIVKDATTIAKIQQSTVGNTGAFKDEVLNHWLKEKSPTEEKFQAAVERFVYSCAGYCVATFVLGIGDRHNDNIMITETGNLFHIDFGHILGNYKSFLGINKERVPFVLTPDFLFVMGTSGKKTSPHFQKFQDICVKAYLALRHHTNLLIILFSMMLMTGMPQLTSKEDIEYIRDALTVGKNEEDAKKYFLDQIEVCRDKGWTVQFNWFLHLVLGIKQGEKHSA
T4 sequence (O60674 849-1124 limits assumed): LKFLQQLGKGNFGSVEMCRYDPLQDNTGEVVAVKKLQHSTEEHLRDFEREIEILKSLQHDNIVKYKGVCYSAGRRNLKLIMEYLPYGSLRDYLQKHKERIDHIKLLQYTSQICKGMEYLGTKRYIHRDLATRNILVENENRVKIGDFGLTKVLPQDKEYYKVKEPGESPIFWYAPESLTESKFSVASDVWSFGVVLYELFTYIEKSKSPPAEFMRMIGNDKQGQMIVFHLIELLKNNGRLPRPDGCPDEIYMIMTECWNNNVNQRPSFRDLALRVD

In the case of `C/C=C(/C)C(=O)O[C@H]1Cc2cc3ccc(=O)oc3cc2OC1(C)C` [DA, decursinol angelate], the “sleeping time by pentobarbital (42 mg/kg)” value in data set [1] (dose-dependent) is “prolonged sleeping time”. Moreover, in data set [1] (oral DA 10, 25 and 50 mg/kg), the spontaneous locomotor activity entry is “markedly suppressed spontaneous locomotor activity”. In the data set on sleep architectures, the “total sleep time (EEG)” value was “increased total sleep time”. In addition, the “intracellular Cl- influx level” value in [2] (DA 0.001, 0.01 and 0.1 µg/ml ≈ 0.003, 0.03 and 0.3 µM) is reported as “increased”. In addition, the “protein expression of GAD65/67 and GABAA receptor subtypes” value in [2] was “increased the protein expression”. Also, the severity of colitis result in the data set on DSS-induced colitis was “attenuated the severity of colitis”. The “Cyp isoforms for metabolism to DOH” value in the data set on CYP2C19 and 3A4 is “major human isoforms”. Moreover, in the data set on carboxyesterase-2 (CES2), the “CES2 contribution to metabolism to DOH” value was “not”.

What is called Kd is the concentration at which binding is half-saturated. Read a low Kd as higher affinity. Turning to `CC1(C)Oc2cc3oc(=O)ccc3cc2C[C@@H]1O` [DOH, decursinol], the remaining binding at 50 µM came to 45% on BIKE (BMP2K); 3.3% at ERK4 (MAPK4) (setting [9]); 47% at GRK4; 49% in [3]; 7.6% at LKB1 (STK11) (setting [9]); 32% on PIK3C2G. Also, the remaining binding at 50 µM at PIK3CG is 46%; on PIP5K1A, 47%; on SRPK3 it was 45%; on YSK4 (MAP3K19), 34%. For the same compound, the Kd at ERK4 (MAPK4) (setting [10]) and at LKB1 (STK11) (setting [10]) was above 50 µM each time. In addition, the “DOH level achievable in the blood” value in data set [4] is “double digit micromolar”. In the data set on acute pain models (gavaged DOH 5 to 200 mg/kg), the “anti-nociceptive ED50” value is ~ 50 mg/kg. For the same compound, the “peak time of anti-nociceptive efficacy” value in the data set on acute pain models (post dose) is 30 min. For the same compound, the analgesic effect entry is “efficacious” in [5] (oral 50 mg/kg) and “not at 25 or 10 mg/kg” in data set [5] (oral 25 or 10 mg/kg). Also, the “serotonin (5-hydroxytryptamine) level in brain” value in data set [6] is on record as “increase”. Besides, the “protection against ischemia stroke models” value in data set [7] is recorded as “failed to protect”. Moreover, the “reduction of sepsis lethality ED50” value in the data set with experimental sepsis is reported as ~ 10 mg/kg. Besides, in [8] (conversion of D and DA to DOH), the AUCDOH/AUCtotal is given as 98.7%. Further, the Cmax in [8] (read-out: mean peak concentration Cmax, 10 men and 10 women, 800 mg INM176 AGN oral) was 2480 nM. Moreover, the “dose giving plateau of therapeutic benefit” value in the data set on CLP microbial exposure was at least 10 mg/kg. The “inhibition of kinase activity” value against CDK9 is listed as “no inhibition”.

Values taken from paper PMC11785709, “Angelica gigas Nakai (Korean Dang-gui) Root Alcoholic Extracts in Health Promotion and Disease Therapy – active Phytochemicals and In Vivo Molecular Targets” (Pharmaceutical Research, 2025).
